Laboratory results as given in PubChem BioAssay AID256 (DTP/NCI, 2004).
Several values for one entry are separate records, joined by “and”; a condition that tells them apart may be missing. Equal entries are not always repeated. Toxic doses and inconclusive results are not listed. How the source made its calls: active means survival T/C of 150% or more; inactive means T/C below 125% in these data.

Tested on: CD2F1 mice, L1210 leukemia ip, survival T/C
Assay: NCI In Vivo Anticancer Drug Screen. Data for tumor model L1210 Leukemia (intraperitoneal) in CD2F1 (CDF1) mice
Settings: endpoint: mean survival time, higher = longer survival
Method in brief: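 In this screen, transplantable tumors were grown in mice given either the compound or its vehicle. Results were expressed as the treated measurement relative to the control measurement.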

[1] = dose: 0.39 mg/kg/injection, schedule: Q01DX009 (ip), vehicle: saline
[2] = dose: 0.78 mg/kg/injection, schedule: Q01DX009 (ip), vehicle: saline
[3] = dose: 1.56 mg/kg/injection, schedule: Q01DX009 (ip), vehicle: saline
[4] = dose: 100.0 mg/kg/injection, schedule: Q01DX001 (ip), vehicle: saline with Tween-80
[5] = dose: 200.0 mg/kg/injection, schedule: Q01DX001 (ip), vehicle: saline with Tween-80
[6] = dose: 100.0 mg/kg/injection, schedule: Q04DX003 (ip), vehicle: saline with Tween-80
[7] = dose: 200.0 mg/kg/injection, schedule: Q04DX003 (ip), vehicle: saline with Tween-80

Measured: T/C

[CH3][Sn]([CH3])([Br])[CH2]CCBr
inactive: dose: 0.39 mg/kg/injection, schedule: Q01DX009 (ip), vehicle: saline with Tween-80 100 % of control | [1] 90 % of control | dose: 0.78 mg/kg/injection, schedule: Q01DX009 (ip), vehicle: saline with Tween-80 100 % of control | [2] 90 % of control | [3] 97 % of control

O=P(N1CCCC1)(N1CCCC1)N1CCCC1.O=[N+]([O-])O.O=[N+]([O-])O.[O]=[U]=[O]
inactive: dose: 3.12 mg/kg/injection, schedule: Q04DX003 (ip), vehicle: Klucel (hydroxypropylcellulose) (HPC) 102 % of control | dose: 12.5 mg/kg/injection, schedule: Q04DX003 (ip), vehicle: Klucel (hydroxypropylcellulose) (HPC) 102 % of control

COc1ccc(OC)c(C2(O)C=C(Cl)C(=O)C=C2Cl)c1 (centres undefined)
inactive: [4] 101 % of control | [5] 97 % of control

CN1CCC(c2ccccc2)(c2ccccc2)OC1c1ccccc1 (centres undefined)
inactive: [6] 101 % of control | [7] 100 % of control | dose: 400.0 mg/kg/injection, schedule: Q04DX003 (ip), vehicle: saline with Tween-80 94 % of control

N#C/C(=C\c1cccc(OCc2ccccc2)c1)c1ccc([N+](=O)[O-])cc1
inactive: dose: 6.25 mg/kg/injection, schedule: Q04DX003 (ip), vehicle: saline 98 % of control | dose: 12.5 mg/kg/injection, schedule: Q04DX003 (ip), vehicle: saline 98 % of control | dose: 25.0 mg/kg/injection, schedule: Q04DX003 (ip), vehicle: saline 102 % of control

COCCCNc1ccc([N+](=O)[O-])cn1
inactive: dose: 50.0 mg/kg/injection, schedule: Q01DX001 (ip), vehicle: carboxymethylcellulose (CMC) 100 % of control | dose: 100.0 mg/kg/injection, schedule: Q01DX001 (ip), vehicle: carboxymethylcellulose (CMC) 100 % of control | dose: 200.0 mg/kg/injection, schedule: Q01DX001 (ip), vehicle: carboxymethylcellulose (CMC) 108 % of control

CCCCC(CC)COCC1CO1 (centres undefined)
inactive: dose: 50.0 mg/kg/injection, schedule: Q01DX009 (ip), vehicle: Klucel (hydroxypropylcellulose) (HPC) 102 % of control | dose: 100.0 mg/kg/injection, schedule: Q01DX009 (ip), vehicle: Klucel (hydroxypropylcellulose) (HPC) 96 % of control | dose: 200.0 mg/kg/injection, schedule: Q01DX009 (ip), vehicle: Klucel (hydroxypropylcellulose) (HPC) 100 % of control

O=C(c1ccccc1)C1OC1c1ccc(Cl)cc1 (centres undefined)
inactive: dose: 50.0 mg/kg/injection, schedule: Q04DX003 (ip), vehicle: saline with Tween-80 96 % of control | [6] 102 % of control | [7] 106 % of control

COc1ccc(CCCC(=O)O)cc1
inactive: [4] 94 % of control | [5] 92 % of control | dose: 400.0 mg/kg/injection, schedule: Q01DX001 (ip), vehicle: saline with Tween-80 94 % of control

NC(=S)/C(N)=N/Nc1ccc(Cl)cc1
inactive: [1] 101 % of control | [2] 104 % of control | [3] 108 % of control | dose: 3.12 mg/kg/injection, schedule: Q01DX009 (ip), vehicle: saline 107 % of control | dose: 6.25 mg/kg/injection, schedule: Q01DX009 (ip), vehicle: saline 96 % of control and 110 % of control | dose: 12.5 mg/kg/injection, schedule: Q01DX009 (ip), vehicle: saline 113 % of control and 93 % of control | dose: 25.0 mg/kg/injection, schedule: Q01DX009 (ip), vehicle: saline 100 % of control | dose: 50.0 mg/kg/injection, schedule: Q01DX009 (ip), vehicle: saline 100 % of control

O=S(=O)(/C=C(/Br)c1ccccc1)c1ccccc1
inactive: dose: 100.0 mg/kg/injection, schedule: Q01DX009 (ip), vehicle: saline 96 % of control | dose: 100.0 mg/kg/injection, schedule: Q04DX003 (ip), vehicle: saline 100 % of control | dose: 200.0 mg/kg/injection, schedule: Q01DX009 (ip), vehicle: saline 91 % of control | dose: 200.0 mg/kg/injection, schedule: Q04DX003 (ip), vehicle: saline 100 % of control | dose: 400.0 mg/kg/injection, schedule: Q01DX009 (ip), vehicle: saline 90 % of control | dose: 400.0 mg/kg/injection, schedule: Q04DX003 (ip), vehicle: saline 100 % of control

O=C1C(Br)CCC1C(O)(C(F)(F)F)C(F)(F)F (centres undefined)
inactive: dose: 50.0 mg/kg/injection, schedule: Q01DX009 (ip), vehicle: saline with Tween-80 98 % of control | dose: 100.0 mg/kg/injection, schedule: Q01DX009 (ip), vehicle: saline with Tween-80 102 % of control | [6] 92 % of control | dose: 200.0 mg/kg/injection, schedule: Q01DX009 (ip), vehicle: saline with Tween-80 104 % of control | [7] 91 % of control

FC(F)(F)C1(F)N(Cc2ccccc2)N=NC1(F)F (centres undefined)
inactive: dose: 75.0 mg/kg/injection, schedule: Q01DX001 (ip), vehicle: saline 96 % of control | dose: 150.0 mg/kg/injection, schedule: Q01DX001 (ip), vehicle: saline 98 % of control | dose: 300.0 mg/kg/injection, schedule: Q01DX001 (ip), vehicle: saline 96 % of control
